Assay results as given in patent publication US10851065B2 (Eisai R&D Management Co., Ltd., priority 2015, dated 2020).

What was measured:
[1] = system: MCF7-WT cells (MCF7 ER-alpha wildtype); test: In vitro proliferation (viability) assay, CellTiter-Glo, MCF7-WT cells; format: cell-based; details: Homo sapiens; MCF7-WT cells, 6 days, CTG vs day 0; mean ± SD-type spread (n); read-out: GI50 WT
[2] = system: MCF7-Y537S cells (MCF7 ER-alpha Y537S mutant); test: In vitro proliferation (viability) assay, CellTiter-Glo, MCF7-Y537S cells; format: cell-based; details: Homo sapiens; MCF7-Y537S cells, 6 days, CTG vs day 0; mean ± SD-type spread (n); read-out: GI50 MUT (Y537S)
Method in brief: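 Stable lentiviral MCF7 lines expressing WT or Y537S ESR1 seeded at 1500 cells/well; next day dosed with 10-point 1:4 dilutions in triplicate, with media/compound refreshed on day 3. CellTiter-Glo luminescence on day 6 compared with a day 0 reading to give GI50.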

GI50 [1] [nM]	GI50 [2] [nM]	Compound
0.3 ± 0.1	4 ± 1.5	CN(C)C(=O)/C=C/CNCCOc1ccc(/C(=C(/CC(F)(F)F)c2ccncc2F)c2ccc3[nH]nc(F)c3c2)cc1 [Compound 61, (E)-N,N-dimethyl-4-((2-(4-((E)-4,4,4-trifluoro-1-(3-fluoro-1H-indazol-5-yl)-2-(3-fluoropyridin-4-yl)but-1-en-1-yl)phenoxy)ethyl)amino)but-2-enamide]
0.3	1.3	CN(C)C(=O)/C=C/CNCCOc1ccc(/C(=C(/CC(F)(F)F)c2ccncc2F)c2ccc3[nH]nc(F)c3c2)cn1 [Compound 62, (E)-N,N-dimethyl-4-((2-((5-((Z)-4,4,4-trifluoro-1-(3-fluoro-1H-indazol-5-yl)-2-(3-fluoropyridin-4-yl)but-1-en-1-yl)pyridin-2-yl)oxy)ethyl)amino)but-2-enamide]
2.8	65.7	CC/C(=C(/c1ccc(OCCNC/C=C/C(=O)N(C)C)cc1)c1ccc2[nH]ncc2n1)c1ccccc1 [Compound 63, (E)-N,N-dimethyl-4-((2-(4-((E)-2-phenyl-1-(1H-pyrazolo[4,3-b]pyridin-5-yl)but-1-en-1-yl)phenoxy)ethyl)amino)but-2-enamide]
3.1	58.3	CC/C(=C(\c1ccc2[nH]nc(F)c2c1)c1ccc(OCCNC/C=C/C(=O)N(C)C)cc1F)c1ccccc1 [Compound 64, (E)-4-((2-(3-fluoro-4-((Z)-1-(3-fluoro-1H-indazol-5-yl)-2-phenylbut-1-en-1-yl)phenoxy)ethyl)amino)-N,N-dimethylbut-2-enamide]
4	66	CC/C(=C(/c1ccc(OCCNC/C=C/C(=O)N(C)C)cc1)c1ccc2[nH]nc(F)c2c1)c1ccc(F)cc1F [Compound 65, (E)-4-((2-(4-((E)-2-(2,4-difluorophenyl)-1-(3-fluoro-1H-indazol-5-yl)but-1-en-1-yl)phenoxy)ethyl)amino)-N,N-dimethylbut-2-enamide]
32.1	827	CC/C(=C(/c1ccc(OCCNC/C=C/C(=O)N(C)C)cc1)c1cc2c(F)n[nH]c2cc1F)c1ccccc1 [Compound 66, (E)-4-((2-(4-((E)-1-(3,6-difluoro-1H-indazol-5-yl)-2-phenylbut-1-en-1-yl)phenoxy)ethyl)amino)-N,N-dimethylbut-2-enamide]
10.5	193	CC/C(=C(/c1ccc(OCCNC/C=C/C(=O)N(C)C)cc1)c1ccc2[nH]nc(F)c2c1)c1ccccn1 [Compound 67, (E)-4-((2-(4-((E)-1-(3-fluoro-1H-indazol-5-yl)-2-(pyridin-2-yl)but-1-en-1-yl)phenoxy)ethyl)amino)-N,N-dimethylbut-2-enamide]
2.8	30.3	CC/C(=C(/c1ccc(OCCNC/C=C/C(=O)N(C)C)nc1)c1ccc2[nH]nc(F)c2c1)c1ccccc1 [Compound 68, (E)-4-((2-((5-((Z)-1-(3-fluoro-1H-indazol-5-yl)-2-phenylbut-1-en-1-yl)pyridin-2-yl)oxy)ethyl)amino)-N,N-dimethylbut-2-enamide]
2	32.7	CN(C)C(=O)/C=C/CNCCOc1ccc(/C(=C(\c2ccccc2)C2CCC2)c2ccc3[nH]nc(F)c3c2)cn1 [Compound 72, (E)-4-((2-((5-((Z)-2-cyclobutyl-1-(3-fluoro-1H-indazol-5-yl)-2-phenylvinyl)pyridin-2-yl)oxy)ethyl)amino)-N,N-dimethylbut-2-enamide]
1.7	40.5	CC/C(=C(/c1ccc(OCCNC/C=C/C(=O)N(C)C)cc1)c1ccc2[nH]nc(F)c2c1)c1ccccc1Cl [Compound 73, (E)-4-((2-(4-((E)-2-(2-chlorophenyl)-1-(3-fluoro-1H-indazol-5-yl)but-1-en-1-yl)phenoxy)ethyl)amino)-N,N-dimethylbut-2-enamide]
1.8 ± 0.5	28.8 ± 14	CC/C(=C(/c1ccc(OCCNC/C=C/C(=O)N(C)C)cc1)c1ccc2[nH]ncc2c1)c1ccc(F)cc1Cl [Compound 74, (E)-4-((2-(4-((E)-2-(2-chloro-4-fluorophenyl)-1-(1H-indazol-5-yl)but-1-en-1-yl)phenoxy)ethyl)amino)-N,N-dimethylbut-2-enamide]
3.2	72.2	CC/C(=C(/c1ccc(OCCNC/C=C/C(=O)N(C)CCO)cc1)c1ccc2[nH]nc(F)c2c1)c1ccncc1 [Compound 75, (E)-4-((2-(4-((E)-1-(3-fluoro-1H-indazol-5-yl)-2-(pyridin-4-yl)but-1-en-1-yl)phenoxy)ethyl)amino)-N-(2-hydroxyethyl)-N-methylbut-2-enamide]
1.2	32.2	CC/C(=C(/c1ccc(OCCNC/C=C/C(=O)N(C)C)cc1)c1cc(F)c2[nH]ncc2c1)c1ccccc1 [Compound 76, (E)-4-((2-(4-((E)-1-(7-fluoro-1H-indazol-5-yl)-2-phenylbut-1-en-1-yl)phenoxy)ethyl)amino)-N,N-dimethylbut-2-enamide]
2.4	35	CCC/C(=C(/c1ccc(OCCNC/C=C/C(=O)N(C)C)cc1)c1ccc2[nH]nc(F)c2c1)c1ccccc1 [Compound 77, (E)-4-((2-(4-((E)-1-(3-fluoro-1H-indazol-5-yl)-2-phenylpent-1-en-1-yl)phenoxy)ethyl)amino)-N,N-dimethylbut-2-enamide]
6.9	92.5	CC/C(=C(/c1ccc(OCCNC/C=C/C(=O)N(C)C)cc1)c1cc(F)c2[nH]nc(F)c2c1)c1ccccc1 [Compound 79, (E)-4-((2-(4-((E)-1-(3,7-difluoro-1H-indazol-5-yl)-2-phenylbut-1-en-1-yl)phenoxy)ethyl)amino)-N,N-dimethylbut-2-enamide]
2	33.6	CC/C(=C(/c1ccc(OCCNC/C=C/C(=O)N(C)C)cc1)c1ccc2[nH]nc(F)c2c1)c1cc(F)ccc1F [Compound 80, (E)-4-((2-(4-((E)-2-(2,5-difluorophenyl)-1-(3-fluoro-1H-indazol-5-yl)but-1-en-1-yl)phenoxy)ethyl)amino)-N,N-dimethylbut-2-enamide]
0.3	13	CC/C(=C(/c1ccc(OCCNC/C=C/C(=O)N(C)C)cc1)c1ccc2[nH]nc(F)c2c1)c1ccncc1F [Compound 81, (E)-4-((2-(4-((E)-1-(3-fluoro-1H-indazol-5-yl)-2-(3-fluoropyridin-4-yl)but-1-en-1-yl)phenoxy)ethyl)amino)-N,N-dimethylbut-2-enamide]
4.65 ± 2.9	93.7 ± 6.3	CC(C)/C(=C(/c1ccc(OCCNC/C=C/C(=O)N(C)C)cc1)c1ccc2[nH]nc(F)c2c1)c1ccccc1 [Compound 82, (E)-4-((2-(4-((E)-1-(3-fluoro-1H-indazol-5-yl)-3-methyl-2-phenylbut-1-en-1-yl)phenoxy)ethyl)amino)-N,N-dimethylbut-2-enamide]
2.15 ± 0.15	34.9 ± 1.5	CN(C)C(=O)/C=C/CNCCOc1ccc(/C(=C(/CCF)c2ccccc2)c2ccc3[nH]nc(F)c3c2)cc1 [Compound 84]
1.56 ± 0.56	28.4 ± 2.9	CC/C(=C(/c1ccc(OCCNCC/C=C/C(=O)N(C)C)cc1)c1ccc2[nH]nc(F)c2c1)c1ccc(F)cc1Cl [Compound 85]
1.73 ± 1	29.4 ± 4.7	CC/C(=C(/c1ccc(OCCNC/C=C(\C)C(=O)N(C)C)cc1)c1ccc2[nH]nc(F)c2c1)c1ccc(F)cc1Cl [Compound 86]
0.25	21.9	CN(C)C(=O)/C=C/CNCCOc1ccc(/C(=C(/CC(F)(F)F)c2ccc(F)cc2Cl)c2ccc3[nH]nc(F)c3c2)cc1 [Compound 87, (E)-4-((2-(4-((E)-2-(2-chloro-4-fluorophenyl)-4,4,4-trifluoro-1-(3-fluoro-1H-indazol-5-yl)but-1-en-1-yl)phenoxy)ethyl)amino)-N,N-dimethylbut-2-enamide]
0.7	12.5	[2H]c1c([2H])c([2H])c(/C(CC)=C(\c2ccc(OCCNC/C=C/C(=O)N(C)C)cc2)c2ccc3[nH]ncc3c2)c([2H])c1[2H] [Compound 88, (E)-4-((2-(4-((E)-1-(1H-indazol-5-yl)-2-(phenyl-d5)but-1-en-1-yl)phenoxy)ethyl)amino)-N,N-dimethylbut-2-enamide]
2.8	35	CC/C(=C(/c1ccc(OCCNC(C)/C=C/C(=O)N(C)C)cc1)c1ccc2[nH]ncc2c1)c1ccccc1 (centres unmarked) [Compound 89, (E)-4-((2-(4-((E)-1-(1H-indazol-5-yl)-2-phenylbut-1-en-1-yl)phenoxy)ethyl)amino)-N,N-dimethylpent-2-enamide]
2.5	22.7	CC/C(=C(/c1ccc(OC(C)CNC/C=C/C(=O)N(C)C)cc1)c1ccc2[nH]ncc2c1)c1ccccc1 (centres unmarked) [Compound 90, (E)-4-((2-(4-((E)-1-(1H-indazol-5-yl)-2-phenylbut-1-en-1-yl)phenoxy)propyl)amino)-N,N-dimethylbut-2-enamide]
2.3	26.9	CC/C(=C(/c1ccc(OCC(C)NC/C=C/C(=O)N(C)C)cc1)c1ccc2[nH]ncc2c1)c1ccccc1 (centres unmarked) [Compound 92, (E)-4-((1-(4-((E)-1-(1H-indazol-5-yl)-2-phenylbut-1-en-1-yl)phenoxy)propan-2-yl)amino)-N,N-dimethylbut-2-enamide]
12.4	369	CC/C(=C(\c1ccc2[nH]nc(F)c2c1)c1ccc(OCCNC/C=C/C(=O)N(C)C)cn1)c1ccccc1 [Compound 93, (E)-4-((2-((6-((Z)-1-(3-fluoro-1H-indazol-5-yl)-2-phenylbut-1-en-1-yl)pyridin-3-yl)oxy)ethyl)amino)-N,N-dimethylbut-2-enamide]
1.8	32.4	CC/C(=C(/c1ccc(OCCCNC/C=C/C(=O)N(C)C)cc1)c1ccc2[nH]ncc2c1)c1ccccc1 [Compound 95, (E)-4-((3-(4-((E)-1-(1H-indazol-5-yl)-2-phenylbut-1-en-1-yl)phenoxy)propyl)amino)-N,N-dimethylbut-2-enamide]
